Patent US20130136778A1, “PTEROSTILBENE (PTER) FOR USE IN THE PREVENTION AND/OR TREATMENT OF SKIN DISEASES, DAMAGES OR INJURIES” (GREEN MOLECULAR, S.L., priority 2009, published 2013)

What was measured:
Format in all cases: in vivo
SKH-1 mice [1] = assay: Photocarcinogenesis: chronic exposure to UV-B, precancerous lesions/tumors per mouse; conditions: after 30 weeks of chronic exposure to UV-B
Description: The role of UV-B radiation in tumor formation is well known. The continuous exposure to UV-B promotes the formation of oxidative/nitrosative stress, along with alterations in DNA, proteins, etc. that activates various transcription factors (among them NF-κB and AP-1), increase in the telomerase activity, stress, etc. which in turn induces carcinogenesis.
The mice chosen for this study were SKH-1.
The protocol used was the standardized protocol, whereby several mice were irradiated three times per week with a dose of 180 mJ/cm^2 with exposures for 24 weeks; however, […], in order to obtain more evidence of the photoprotector effect on the different treatments used.
The dose of exposure was 180 mJ/cm2, since it had been determined in previous trials that this was the minimal erythemic dose (MED) for this type of rodent.
A range of different commercial photoprotectors were included in this study: • Vichy: Capital Soleil SPF-50+(Vichy Laboratoires). • Isdin: Photoprotector Isdin Extrem (SPF-40 (Isdin SA) • Heliocare: Heliocare gel Protection Ultra 90 (Difa Cooper S.P.A.)
Both the reference compounds and the ones subject of this study were applied to the back of the mice for 20 minutes prior to their exposure to UV-B. […]
During the photocarcinogenesis process, the presence of different tumors was followed and quantified throughout the process. […]

BALB/c mice = assay: Contact hypersensitivity induced by oxazolone (ear edema); conditions: FIG. 22; 1 μmol polyphenols, 20 mg diprosone; applied after oxazolone
Method: The edema was calculated as the difference between the thickness that was produced in the ears, before the outcomes of the reaction, and their thickness 24 hours later, and it was measured with a vernier caliper.
The change was expressed as the relative increase in relation to day 0.
The application of oxazolone after sensitization to the same substance produces a reaction of hypersensitivity by contact, which appears as an eczematous reaction, with infiltration of lymphocytes and macrophages, with edema of the epidermis.
The BALB/c mice are sensitized on day 0 through the application, on the shaved abdomen, of 100 μL of oxazolone at 1.5% in acetone (w/v). Prior to the induction for hypersensitization, the thickness of the ear was measured with the help of a vernier caliper (Mitutoyo micrometer). The reaction was caused on day 7 by applying 20 μL of 2.5% oxazolone in ethanol (10 μL to each side of the right ear).
As a control measure the left ear was used, to which 20 μL of ethanol was applied. And a standard treatment, Diprosone® cream was used: (Schering Plough B. V., Utrecht, The Netherlands), that contains 0.5 mg de betamethasone/g. […]

SKH-1 mice [2] = assay: Experimental psoriasis induced by TPA
Method: For the induction of psoriasis, the agent “12-O-tetradecanoylphorbol-13 acetate” (TPA) was used.
Since our objective was to assess the progress of the lesions caused by psoriasis in combination with the use of polyphenols, a model of continuous exposure and a weaker concentration of TPA were used, on a daily dose of 2 nmoles of TPA over a period of a week, which allowed us to observe the progress of the psoriasis.
The induction was performed with 2 nmol TPA/mouse on an area of 1 cm^2, applying 10 μL of the 200 μM solution in acetone. This application protocol was carried out taking into account that when applying 20 μL as stated in the model, the volume increased considerably and it lost its concentration, therefore it was decided to make it more concentrated.
As a standard treatment, Dexamethasone was used, (from Sigma Solution 25 mM in acetone). The administration of the standard treatment and the products to be tested were given 30 minutes prior to the application of TPA, both beginning on the same day.
The groups, of 6 mice, for this assessment were: • Not treated. • Reference compound: 0.5 μmoles of Dexamethasone (200 μL of one solution 25 mM in acetone). • Medium: 200 μl of vacuumed Liposomes. • Resveratrol: 200 μL of Resveratrol Liposomes (10 μmol in total). • PTER: 200 μL of PTER Liposomes (10 μmol in total). • QUER: 200 μL of QUER Liposomes (10 μmol in total). • PTER+QUER:: 200 μL of PTER Liposomes+QUER (10 μmol in total).
At 24 hours (day 7) after the last administration of the different treatments and TPA, 3 mice from each group were sacrificed and their skin fixed with 4% PFA. The remaining mice were kept under the treatment with no exposure to TPA, to verify if the skin recovered faster on the treatment than on its own. At 24 hours (day 9) after the last administration of the different treatments the rest of the mice were sacrificed and their skin fixed with 4% PFA.
The flaky aspect of the skin was quantified in a scale of 0-3, being 0, nothing; 1, mild; 2, moderate; 3, severe.

SMILES: COc1cc(/C=C/c2ccc(O)cc2)cc(OC)c1 [PTER, 3,5-dimethoxy-4′-hydroxy-trans-resveratrol]
- mice presenting lesions (SKH-1 mice [1]): 10%
- edema of the ear / inflammatory changes induced by oxazolone (BALB/c mice): could prevent inflammatory changes as a result of inflammation induced by oxazolone
- index of excoriation or descaling (scale 0-3) (SKH-1 mice [2]; 24 hours after 7 administrations of TPA): fewer indexes of excoriation or descaling
- increase of skinfold throughout the procedure (SKH-1 mice [2]; FIG. 23, 6 consecutive days, treatment 30 min prior to 2 nmol TPA): an important decrease in the increase of skinfolds
- increase in the skinfold 24 hours after the first administration of TPA (SKH-1 mice [2]; FIG. 24, treatment 30 min prior to 2 nmol TPA): significantly diminished the appearance of edema
- skinfold after 3 administrations of TPA (SKH-1 mice [2]; FIG. 25): produce a diminishing effect on the inflammation produced by TPA
- histological analysis of the lesions (SKH-1 mice [2]; FIG. 28, hematoxylin-eosin, TPA daily over 7 days): no signs of papillomatosis, but there was acanthosis due to a massive proliferation
